# Experiments:
# [1] = Partition coefficient (logP butanol/buffer); format: physicochemical; details: 1-butanol / 50 mM Tris-HCl, pH 7.4, room temperature
# [2] = 1.5 T, 37° C., from Rohrer et al., cited from earlier work; for r1 human plasma: bovine plasma instead of human plasma
# [3] = molecular target: T1, OATP1B1 (Homo sapiens, UniProt Q9Y6L6); assay: Uptake into stable transfected OATP1B1 HEK 293 cells; format: cell-based; details: for Uptake into OATP1B1-HEK 293 cells: 100 μM, 40 min, relative to RC1
# T1 sequence (Q9Y6L6 1-691): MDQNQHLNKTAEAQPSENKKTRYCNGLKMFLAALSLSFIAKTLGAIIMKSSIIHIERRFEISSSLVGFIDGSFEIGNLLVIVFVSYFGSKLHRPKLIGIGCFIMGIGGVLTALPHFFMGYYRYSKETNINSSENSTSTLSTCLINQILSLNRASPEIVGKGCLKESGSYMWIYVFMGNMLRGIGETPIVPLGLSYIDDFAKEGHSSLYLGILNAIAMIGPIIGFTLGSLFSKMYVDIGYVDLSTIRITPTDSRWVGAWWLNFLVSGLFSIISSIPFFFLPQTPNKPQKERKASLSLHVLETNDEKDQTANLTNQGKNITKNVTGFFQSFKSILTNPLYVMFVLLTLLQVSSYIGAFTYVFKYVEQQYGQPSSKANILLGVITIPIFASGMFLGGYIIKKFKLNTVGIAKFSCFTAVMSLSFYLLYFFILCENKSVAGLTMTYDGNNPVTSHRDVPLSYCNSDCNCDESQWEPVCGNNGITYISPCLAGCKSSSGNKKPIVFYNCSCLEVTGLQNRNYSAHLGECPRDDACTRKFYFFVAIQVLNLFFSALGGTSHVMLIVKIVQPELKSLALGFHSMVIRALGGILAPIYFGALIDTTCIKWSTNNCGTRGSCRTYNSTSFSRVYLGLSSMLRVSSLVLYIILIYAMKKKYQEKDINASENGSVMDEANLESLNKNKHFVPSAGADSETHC
# Experimental: Cryopreserved cells were shortly thawed in water bath and diluted in 10 mL warm culture medium (37° C.). After medium change the cells were grown for 3 d in a 25 cm^2 cell culture flask. After 3 to 5 d the cells were transferred into 75 cm^2 flasks. […] All test items were prepared in transport buffer at a final concentration of 100 μM from stock solutions (180 to 500 mM concentration). The OATP1B1 HEK 293 cells were incubated with test solutions (test item in transport buffer 500 μL) for 40 min on a thermoshaker without shaking (PHMP, Fa. Grant Bio). Triplicates were performed for each test item. After incubation the cells were washed with 2 mL of cold PBS (+) buffer (Dulbeccos PBS+, Fa. Gibco). The OATP1B1 HEK 293 cells were lysed by addition of 500 μL cold 0.01% Triton-X 100 in Millipore water for 1 h. […] After 1 h 500 μL of 1 nM Terbium ICP-MS standard was added in 2% nitric acid and 0.01% Triton 100.
# [4] = In vivo pharmacokinetics following i.v. administration in rat; details: i.v. bolus, dose 100 μmol/kg bw
# Experimental: Pharmacokinetic parameters of Example 1 and 15 and were determined in male and female rats (Han-Wistar, n=4). […] The samples were digested using strong acidic and oxidizing conditions at elevated temperature following dilution in 1% nitric acid to bring the samples in the quantification range of the method. The lower limit of quantitation amounts to 1 nmol/L for all elements and the upper limit to 1000 nmol/L in the diluted sample.
# The fit of the obtained data to a three-compartment model (Phoenix, WinNonlin 6.4, 3-compartment mode) yielded the pharmacokinetic parameters which are shown in Table 8.
# [5] = molecular target: T2, OATP1B3 (Homo sapiens, UniProt Q9NPD5); assay: Uptake into stable transfected OATP1B3 HEK 293 cells; format: cell-based
# T2 sequence (Q9NPD5 1-702): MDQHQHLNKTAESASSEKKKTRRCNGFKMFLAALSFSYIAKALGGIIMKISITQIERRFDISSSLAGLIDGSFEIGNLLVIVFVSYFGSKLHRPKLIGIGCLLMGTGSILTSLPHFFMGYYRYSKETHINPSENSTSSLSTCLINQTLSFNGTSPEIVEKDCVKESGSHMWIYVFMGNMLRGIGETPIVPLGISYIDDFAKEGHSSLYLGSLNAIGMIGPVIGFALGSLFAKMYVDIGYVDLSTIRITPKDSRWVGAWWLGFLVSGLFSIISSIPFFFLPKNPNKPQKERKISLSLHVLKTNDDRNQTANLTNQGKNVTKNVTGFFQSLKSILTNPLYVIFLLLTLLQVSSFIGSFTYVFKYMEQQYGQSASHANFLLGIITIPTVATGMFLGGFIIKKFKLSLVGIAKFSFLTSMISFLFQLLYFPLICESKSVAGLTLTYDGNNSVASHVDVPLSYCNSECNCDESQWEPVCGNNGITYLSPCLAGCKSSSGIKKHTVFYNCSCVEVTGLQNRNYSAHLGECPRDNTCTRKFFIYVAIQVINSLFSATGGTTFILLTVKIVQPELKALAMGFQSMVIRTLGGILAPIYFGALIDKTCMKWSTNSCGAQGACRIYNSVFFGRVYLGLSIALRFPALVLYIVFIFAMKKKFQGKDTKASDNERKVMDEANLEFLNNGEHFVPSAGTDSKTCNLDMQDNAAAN
# [6] = Excretion study in rats (5 days) and residual gadolinium organ distribution (7 days); format: in vivo, rat; details: male rats, 0.1 mmol Gd/kg bw i.v.; for Σ organs and carcass: 7 d post injection
# Experimental: The excretion and organ distribution of Example 1 and 15 were determined in male rats (Han-Wistar, n=3). The compound was administered as a sterile aqueous solution (50 mmol Gd/L) as a bolus in the tail vein of the animals. The dose was 0.1 mmol Gd/kg bw.
# Urine was collected in the following time periods 0-1 h, 1-3 h, 3-6 h, 6-24 h, 1-2 d and 2-5 d post injection […] and feces 0-1 d, 1-2 d and 2-5 d post injection. As a control, 3 animals were treated in the same way with RC1. On day 7 the animals were sacrificed, and the following organs were excised: blood, liver, kidney, spleen, heart, lung, brain, muscle, skin, stomach, gut, bone and bone marrow. The remaining carcass was freeze dried and ground to a fine powder. The Gd concentration in the organs and the carcass was determined by ICP-MS (ICP-MS Agilent 7500a, Waldbronn, Germany). The compounds are excreted via dual pathway (liver and kidney). Less than 1% of the administered dose was present in the body 7 days after the injection.
# [7] = test system: freshly isolated rat hepatocytes; assay: Uptake into freshly isolated rat hepatocytes; format: cell-based
# Experimental: After incubation the adherent hepatocytes were washed once with 37° C. Hepes carbonate transport buffer (500 μL/well). The test items and RC1 were prepared from stock solutions (180 to 500 mM concentration) in Hepes carbonate transport buffer at pH 7.4 to reach a final concentration of 100 μmol Gd/L. The specific uptake of the test item or RC1 into rat hepatocytes via OATP1B1 and OATP1B3 was challenged using a known OATP1B1/1B3 inhibitor (Rifampicine, Fa. Sigma R3501, test item and inhibitor 1:1 each 100 μM final concentration). The prepared rat hepatocyte plates were incubated with test solutions (500 μL/well) at 37° C. for 10 min using a thermoshaker (Fa. Grant Bio, PHMP). Triplicates were performed for each test item. After incubating the cells were washed once with cold PBS buffer (Fa. Gibco, Dulbeccos PBS (+)). After washing the intact hepatocytes were lysed by addition of 500 μL cold 0.01% Triton-X 100 in Millipore water for 1 h. […] As a reference standard RC1 is used in the same well plate. The hepatocyte uptake of the test compound is calculated relative to RC1 (resulting in the unit % of RC1).
# [8] = Water solubility in aqueous buffer; format: physicochemical; details: aqueous buffer 10 mM Tris-HCl, pH 7.4, 20° C.
# Experimental: The solid compounds were added stepwise to the buffer solution.
# More substance is added once all the suspended material is dissolved until an equilibrium between undissolved and dissolved substance is reached. The suspension was mixed using a shaker (Heidolph Reax 2000) and treated 5 mn in an ultrasound bath (Bandelin, Sonorex Super RK255H).
# [9] = Complex stability (transmetallation with Zn2+); format: physicochemical; details: 72 hours, 2.5 mM Zn^2+, 26 mM phosphate buffer, 37° C., pH 7.4
# Description: If test compounds are instable under these conditions, transmetallation during this test would lead to the formation of the Zn^2+ complex of the test item, while Gd^3+ is released and precipitated as highly insoluble GdPO4.
# [10] = Biliary elimination in bile duct cannulated rats; details: BDC rats, i.v. bolus
# Experimental: All animals are initially anesthetized using a body weight-adjusted intramuscular injection of a mixture (1+2) of xylazine hydrochloride (20 mg/mL, Rompun 2%, Bayer Vital GmbH, Leverkusen) and ketamine hydrochloride (100 mg/mL, Ketavet, Pfizer, Pharmacia GmbH, Berlin) using 1 mL/kg body weight. The continuous anesthesia of the animals is achieved by the intravenous injection of 1.5 mL per hour (Braun perfusor infusion of 1+2, 1:20 saline, xylazine hydrochloride 20 mg/mL, Rompun 2%, Bayer Vital GmbH, Leverkusen and ketamine hydrochloride 100 mg/mL, Ketavet, Pfizer, Pharmacia GmbH, Berlin) via tail vein (Introcan, 24G, yellow). The animals received 0.1 mol Gd/kg bw as intravenous bolus injection via tail vein (50 mmol Gd/L formulation). Bile was sampled 0-0.5 h, 0.5-1 h, 1-2 h, 2-3 h und 3-4 h post injection. […] The bile fractions (n=3 times 10 μL) were dried for 2 h at 90° C. and 50 μL 65% nitric acid (HNO3, Fa. Fisher, Optima Grade #1219010) and 30 μL hydrogen peroxide 30% (H2O2 Fa VWR Chemicals, AnalaR NORMAPUR, #18J024022) were added and processed in microwave oven (5 cycles: 5 min 40 W, 5 min 120 W, 10 min 200 W, 10 min 320 W and 25 min 400 W, Fa. CEM, Mars5 Xpress).
# [11] = cited from earlier work
SMILES,Log P (butanol/buffer) [1],r1 human plasma [2] [L/mmol/s],Excretion Urine ([6]; 0-1 h post injection) [% Dose],Excretion Feces ([6]; 0-1 d post injection) [% Dose],Excretion Urine ([6]; 1-3 h post injection) [% Dose],Excretion Feces ([6]; 1-2 d post injection) [% Dose],Excretion Urine ([6]; 1-2 d post injection) [% Dose],Excretion Feces ([6]; 2-5 d post injection) [% Dose],Excretion Urine ([6]; 2-5 d post injection) [% Dose],Excretion Urine ([6]; 3-6 h post injection) [% Dose],Excretion Urine ([6]; 6-24 h post injection) [% Dose],Σ organs and carcass [6] [% Dose],Total recovery [6] [% Dose],further results
"O=C([O-])CN1CCN(CC(=O)[O-])CCN([C@H](CO)[C@H](O)CO)CCN(CC(=O)[O-])CC1.[Gd+3] (racemic) [RC3, gadobutrol, reference compound]",−2.22,5.2,–,–,–,–,–,–,–,–,–,–,–,–
"CCOc1ccc(C[C@@H](CN(CCN(CC(=O)[O-])CC(=O)[O-])CC(=O)[O-])N(CC(=O)[O-])CC(=O)[O-])cc1.[Gd+3].[H+].[H+] [RC1, Gd-EOB-DTPA]",−2.12,5.2,23.2 ± 1.6,77.5 ± 2.7,23.5 ± 1.5,80.6 ± 2.9,23.7 ± 1.5,80.8 ± 2.9,23.7 ± 1.5,23.6 ± 1.5,23.7 ± 1.5,0.14 ± 0.08,104.6 ± 2.4,"Uptake into OATP1B1-HEK 293 cells [3]: 100 % of RC1; Inhibition Rifampicine ([3]; OATP1B1-HEK 293 cells): 81 % inhibition; r1 water ([2]; water): 3.3 L/mmol/s; AUCnorm Area under the curve [4]: 0.40 kg·h/L; Clplasma Plasma clearance [4]: 2.4 L/h/kg; Vss Volume of distribution at steady state [4]: 0.9 L/kg; t½ α Half-life, compartment V1 [4]: 2 min; t½ β Half-life, compartment V2 [4]: 8 min; t½ γ Half-life, compartment V3 [4]: 6.5 h; Uptake into OATP1B3-HEK 293 cells ([5]; 100 μM, 40 min, relative to RC1): 100 % of RC1; Inhibition Rifampicine ([5]; OATP1B3-HEK 293 cells): 99 % inhibition; Uptake rat hepatocytes ([7]; 100 μmol Gd/L, 10 min, 37° C., relative to RC1): 100 % of RC1; Inhibition Rifampicine ([7]; test item and Rifampicine 1:1 each 100 μM): 97 % inhibition; Solubility [8]: >0.250 mol/L; Transmetallation stability [9]: 44%"
"CCOCCOCCOc1ccc(CCCC(C(=O)O)N2CCN(CC(=O)[O-])CCN(CC(=O)[O-])CCN(CC(=O)[O-])CC2)cc1.[Gd+3] (centres unmarked) [Example 25, gadolinium 2,2′,2″-{10-[1-carboxy-4-{4-[2-(2-ethoxyethoxy)ethoxy]phenyl}butyl]-1,4,7,10-tetraazacyclododecane-1,4,7-triyl}triacetate]",−1.00,–,–,–,–,–,–,–,–,–,–,–,–,Uptake into OATP1B1-HEK 293 cells [3]: 301 % of RC1
"CCOCCOCCOc1ccc(CCC[C@@H](C(=O)O)N2CCN([C@@H](CO)C(=O)[O-])CCN([C@@H](CO)C(=O)[O-])CCN([C@@H](CO)C(=O)[O-])CC2)cc1.[Gd+3] [Example 15, gadolinium (2S,2′S,2″S)-2,2′,2″-{10-[(1S)-1-carboxy-4-{4-[2-(2-ethoxyethoxy)ethoxy]phenyl}butyl]-1,4,7,10-tetraazacyclododecane-1,4,7-triyl}tris(3-hydroxypropanoate)]",−1.00,–,12.6 ± 11.1,78.6 ± 6.2,17.3 ± 3.4,80.0 ± 5.3,17.7 ± 3.3,80.0 ± 5.3,17.7 ± 3.3,17.4 ± 3.3,17.6 ± 3.3,0.11 ± 0.03,97.9 ± 5.4,–
"CCOc1ccc(CCOCC(C(=O)O)N2CCN(CC(=O)[O-])CCN(CC(=O)[O-])CCN(CC(=O)[O-])CC2)cc1.[Gd+3] (centres unmarked) [Example 1, gadolinium 2,2′,2″-(10-{1-carboxy-2-[2-(4-ethoxyphenyl)ethoxy]ethyl}-1,4,7,10-tetraazacyclododecane-1,4,7-triyl)triacetate]",−0.98,–,39.8 ± 6.8,55.6 ± 5.6,40.3 ± 6.8,56.9 ± 6.6,40.9 ± 7.4,57.0 ± 6.6,40.9 ± 7.4,40.3 ± 6.8,40.8 ± 7.4,0.65 ± 0.07,98.6 ± 2.1,"Biliary excretion, Mean ± SD (cumulative) ([10]; bile fraction 0-0.5 h): 55.5 ± 1.7% of injected dose; Biliary excretion, Mean ± SD (cumulative) ([10]; bile fraction 0.5-1 h): 62.6 ± 0.7% of injected dose; Biliary excretion, Mean ± SD (cumulative) ([10]; bile fraction 1-2 h): 65.1 ± 1.3% of injected dose; Biliary excretion, Mean ± SD (cumulative) ([10]; bile fraction 2-3 h): 65.6 ± 1.6% of injected dose; Biliary excretion, Mean ± SD (cumulative) ([10]; bile fraction 3-4 h): 65.8 ± 1.7% of injected dose"
"CCOc1ccc(C[C@@H](CN(CCN(CC(=O)[O-])CC(=O)[O-])CC(=O)[O-])N(CC(=O)[O-])CC(=O)[O-])cc1.[Gd+3].[H+].[H+] [Gd-EOB-DTPA, gadoxetic acid]",–,–,–,–,–,–,–,–,–,–,–,–,–,excreted into the bile ([11]; in vivo): up to 50 % of the administered dose
"O=C([O-])CN(CCN(CC(=O)[O-])CC(=O)[O-])CCN(CC(=O)[O-])C(COCc1ccccc1)C(=O)[O-].[Gd+3].[H+].[H+] (centres unmarked) [Gd-BOPTA, gadobenic acid]",–,–,–,–,–,–,–,–,–,–,–,–,–,secreted into the bile ([11]; Seale et al. 2009): 3-to-5%
"O=C([O-])CN(CCN(CC(=O)[O-])CC(=O)[O-])CCN(CC(=O)[O-])C(COCc1ccccc1)C(=O)[O-].[Gd+3] (centres unmarked) [RC2, Gd-BOPTA, reference compound]",−2.07,4.1,–,–,–,–,–,–,–,–,–,–,–,–
